# Laboratory results published in patent US3983103A, “N-(Benzenesulfonyl)-erythromycylamine derivatives” (PLIVA Pharmaceutical and Chemical Works, priority 1973, dated 1976).
# Tests used:
# Type in all cases: cell-based
# [1] = test system: Streptococcus haemolyticus; assay: antibacterial spectrum in vitro (Table I), MIC
# Excerpt: (§1) The above Table I illustrates antibacterial spectrum in vitro, using some pathogene microorganisms freshly isolated from patients.
# E. coli = assay: antibacterial spectrum in vitro (Table I), MIC
# Diplococcus pneumoniae = assay: antibacterial spectrum in vitro (Table I), MIC
# Excerpt: as §1
# [2] = test system: Staphylococcus pyog. aureus; assay: antibacterial spectrum in vitro (Table I), MIC
# Excerpt: as §1
# Pseudomonas aeruginosa = assay: antibacterial spectrum in vitro (Table I), MIC
# Excerpt: as §1
# Enterococcus = assay: antibacterial spectrum in vitro (Table I), MIC
# Excerpt: as §1
# Klebsiella aerogenes = assay: antibacterial spectrum in vitro (Table I), MIC
# Excerpt: as §1
# Proteus mirabilis = assay: antibacterial spectrum in vitro (Table I), MIC
# [3] = test system: Streptococcus haemolyticus 099; assay: testing against a set of organisms (Table II), MIC; conditions: Streptococcus haemolyticus 099, Table II
# [4] = test system: Staphylococcus aureus 736; assay: testing against a set of organisms (Table II), MIC; conditions: Staphylococcus aureus 736, Table II
# Enterococcus 146 = assay: testing against a set of organisms (Table II), MIC; conditions: Enterococcus 146, Table II
# Enterococcus 45 = assay: testing against a set of organisms (Table II), MIC; conditions: Enterococcus 45, Table II
# Enterococcus 242 = assay: testing against a set of organisms (Table II), MIC; conditions: Enterococcus 242, Table II
# [5] = test system: Streptococcus haemolyticus 69; assay: testing against a set of organisms (Table II), MIC; conditions: Streptococcus haemolyticus 69, Table II
# Enterococcus 325 = assay: testing against a set of organisms (Table II), MIC; conditions: Enterococcus 325, Table II
# [6] = test system: Staphylococcus aureus 372; assay: testing against a set of organisms (Table II), MIC; conditions: Staphylococcus aureus 372, Table II
Compound,MIC [1],MIC (E. coli),MIC (Diplococcus pneumoniae),MIC [2],MIC (Pseudomonas aeruginosa),MIC (Enterococcus),MIC (Klebsiella aerogenes),MIC (Proteus mirabilis),MIC [3],MIC [4],MIC (Enterococcus 146),MIC (Enterococcus 45),MIC (Enterococcus 242),MIC [5],MIC (Enterococcus 325),MIC [6]
"CC[C@H]1OC(=O)[C@H](C)[C@@H](O[C@H]2C[C@@](C)(OC)[C@@H](O)[C@H](C)O2)[C@H](C)[C@@H](O[C@@H]2O[C@H](C)C[C@H](N(C)C)[C@H]2O)[C@](C)(O)C[C@@H](C)C(=O)[C@H](C)[C@@H](O)[C@]1(C)O [E, erythromycin, reference compound]",31.2 µg/mL,250 µg/mL,62.5 µg/mL,62.5 µg/mL,500 µg/mL,31.2 µg/mL,500 µg/mL,500 µg/mL,–,–,–,–,–,–,–,–
"CCC1OC(=O)C(C)C(OC2CC(C)(OC)C(O)C(C)O2)C(C)C(OC2OC(C)CC(N(C)C)C2O)C(C)(O)CC(C)C(NS(=O)(=O)c2ccccc2C)C(C)C(O)C1(C)O (stereo not drawn) [o-EAT, N-(2-methyl-benzenesulfonyl)erythromycylamine]",–,–,–,–,–,–,–,–,1.9 µg/mL,31.2 µg/mL,15.6 µg/mL,7.8 µg/mL,3.9 µg/mL,0.9 µg/mL,7.8 µg/mL,15.6 µg/mL
"CCC1OC(=O)C(C)C(OC2CC(C)(OC)C(O)C(C)O2)C(C)C(OC2OC(C)CC(N(C)C)C2O)C(C)(O)CC(C)C(NS(=O)(=O)c2ccc(C)cc2)C(C)C(O)C1(C)O (stereo not drawn) [EAT, N-(4-methyl-benzenesulfonyl)erythromycylamine]",0.9 µg/mL,62.2 µg/mL,1.9 µg/mL,31.2 µg/mL,250.0 µg/mL,3.9 µg/mL,250 µg/mL,250 µg/mL,0.9 µg/mL,15.6 µg/mL,7.8 µg/mL,7.8 µg/mL,3.9 µg/mL,0.9 µg/mL,7.8 µg/mL,7.8 µg/mL
"CCc1ccc(S(=O)(=O)NC2C(C)CC(C)(O)C(OC3OC(C)CC(N(C)C)C3O)C(C)C(OC3CC(C)(OC)C(O)C(C)O3)C(C)C(=O)OC(CC)C(C)(O)C(O)C2C)cc1 (stereo not drawn) [EAE, N-(4-ethyl-benzenesulfonyl)erythromycylamine]",–,–,–,–,–,–,–,–,0.9 µg/mL,31.2 µg/mL,7.8 µg/mL,7.8 µg/mL,3.9 µg/mL,0.9 µg/mL,3.9 µg/mL,7.8 µg/mL
"CCC1OC(=O)C(C)C(OC2CC(C)(OC)C(O)C(C)O2)C(C)C(OC2OC(C)CC(N(C)C)C2O)C(C)(O)CC(C)C(NS(=O)(=O)c2ccc(I)cc2)C(C)C(O)C1(C)O (stereo not drawn) [EAI, N-(4-iodo-benzenesulfonyl)erythromycylamine]",–,–,–,–,–,–,–,–,0.9 µg/mL,15.6 µg/mL,3.9 µg/mL,7.8 µg/mL,7.8 µg/mL,0.9 µg/mL,3.9 µg/mL,3.9 µg/mL
"CCC1OC(=O)C(C)C(OC2CC(C)(OC)C(O)C(C)O2)C(C)C(OC2OC(C)CC(N(C)C)C2O)C(C)(O)CC(C)C(NS(=O)(=O)c2ccc(Cl)cc2)C(C)C(O)C1(C)O (stereo not drawn) [EACl, N-(4-chloro-benzenesulfonyl)erythromycylamine]",0.9 µg/mL,62.5 µg/mL,1.9 µg/mL,31.2 µg/mL,250.0 µg/mL,3.9 µg/mL,125 µg/mL,250 µg/mL,0.9 µg/mL,31.2 µg/mL,7.8 µg/mL,3.9 µg/mL,3.9 µg/mL,0.9 µg/mL,7.8 µg/mL,3.9 µg/mL
"CCC1OC(=O)C(C)C(OC2CC(C)(OC)C(O)C(C)O2)C(C)C(OC2OC(C)CC(N(C)C)C2O)C(C)(O)CC(C)C(NS(=O)(=O)c2ccc(F)cc2)C(C)C(O)C1(C)O (stereo not drawn) [EAF, N-(4-fluoro-benzenesulfonyl)erythromycylamine]",–,–,–,–,–,–,–,–,< 0.9 µg/mL,31.2 µg/mL,7.8 µg/mL,7.8 µg/mL,3.9 µg/mL,3.9 µg/mL,7.8 µg/mL,15.6 µg/mL
"CCC(=O)Nc1ccc(S(=O)(=O)NC2C(C)CC(C)(O)C(OC3OC(C)CC(N(C)C)C3O)C(C)C(OC3CC(C)(OC)C(O)C(C)O3)C(C)C(=O)OC(CC)C(C)(O)C(O)C2C)cc1 (stereo not drawn) [EAPr, N-(4-propionylamino-benzenesulfonyl)erythromycylamine]",–,–,–,–,–,–,–,–,0.9 µg/mL,15.6 µg/mL,7.8 µg/mL,62.5 µg/mL,31.2 µg/mL,0.9 µg/mL,62.5 µg/mL,15.6 µg/mL
"CCC1OC(=O)C(C)C(OC2CC(C)(OC)C(O)C(C)O2)C(C)C(OC2OC(C)CC(N(C)C)C2O)C(C)(O)CC(C)C(NS(=O)(=O)c2ccc(Br)cc2)C(C)C(O)C1(C)O (stereo not drawn) [EABr, N-(4-bromo-benzenesulfonyl)erythromycylamine]",0.9 µg/mL,125.0 µg/mL,3.9 µg/mL,31.2 µg/mL,250.0 µg/mL,1.9 µg/mL,62.5 µg/mL,250 µg/mL,0.9 µg/mL,7.8 µg/mL,3.9 µg/mL,7.8 µg/mL,3.9 µg/mL,0.9 µg/mL,3.9 µg/mL,3.9 µg/mL
"CCC1OC(=O)C(C)C(OC2CC(C)(OC)C(O)C(C)O2)C(C)C(OC2OC(C)CC(N(C)C)C2O)C(C)(O)CC(C)C(NS(=O)(=O)c2ccc(NC(C)=O)cc2)C(C)C(O)C1(C)O (stereo not drawn) [EAAc, N-(4-acetylamino-benzenesulfonyl)erythromycylamine]",0.45 µg/mL,–,1.9 µg/mL,15.6 µg/mL,250.0 µg/mL,1.9 µg/mL,62.5 µg/mL,125 µg/mL,1.9 µg/mL,31.2 µg/mL,31.2 µg/mL,125.0 µg/mL,62.5 µg/mL,0.9 µg/mL,62.5 µg/mL,15.6 µg/mL
